The subject of data set [1] is Haemophilus influenzae ATCC 49247. Nature of the data set: broth macrodilution volatilization method (liquid and vapor phase MIC). The class given is cell-based. The text has this: (§1) The following four bacterial standard strains from the American Type Culture Collection (ATCC, Manassas, VA, USA) were used: Haemophilus influenzae ATCC 49247, Staphylococcus aureus ATCC 29213, Streptococcus pneumoniae ATCC 49619, and Streptococcus pyogenes ATCC 19615. Cultivation and assay media (broth/agar) were Mueller–Hinton (MH) complemented by Haemophilus Tested Medium (H. influenzae), MH (S. aureus), and Brain Heart Infusion (S. pneumoniae and S. pyogenes). The pH of the broths was equilibrated to a final value of 7.6 using Trizma base (Sigma-Aldrich, Praha, Czech Republic). […] cultivation media were purchased from Oxoid (Basingstoke, UK).
(§2) Stock cultures of bacterial strains were cultivated in broth medium at 37 °C for 24 h prior to testing. For the preparation of inoculum, the turbidity of the bacterial suspension was adjusted to 0.5 McFarland standard using a Densi-La-Meter II (Lachema, Brno, Czech Republic) to obtain a final concentration of 10^8 CFU/mL.
(§3) The antibacterial potential of volatile plant-derived compounds in the liquid and vapor phases was determined using a newly developed broth macrodilution volatilization method performed in standard 2 mL microtubes with snap caps (Eppendorf, Hamburg, Germany). Initially, each sample of compound was dissolved in DMSO at maximum concentration of 1% and diluted in the appropriate broth medium. […] The concentration of β-thujaplicin started from 1024 µg/mL and from 128 µg/mL for thymohydroquinone and thymoquninone. In the second step, 90 µL of melted agar was pipetted into rims on the caps (Figure 3a) and inoculated with 5 µL of bacterial suspension after agar solidification. Subsequently, the appropriate concentrations of each sample previously prepared in test tubes were pipetted into microtubes in a final volume of 1500 µL. Then, the microtubes were inoculated with 10 µL of bacterial suspension and closed properly (Figure 3b). Microtubes containing inoculated and non-inoculated media were prepared as growth and purity controls simultaneously. After incubation at 37 °C for 24 h, the MICs were evaluated by the visual assessment of bacterial growth after coloring metabolically active bacterial colonies with MTT dye. The respective volumes of 30 and 375 µL of MTT at a concentration of 600 µg/mL were pipetted into the caps and in the microtubes when the interface of color change from yellow to purple (relative to that of colors in control wells) was recorded in broth and agar (Figure 3c). […] The MIC values were determined as the lowest concentrations that inhibited bacterial growth compared with the compound-free control and are expressed in µg/mL. In the case of the vapor phase, the concentration was also expressed in µg/cm^3 as the weight of the volatile agent per volume unit of a microtube. […] The respective susceptibilities of H. influenzae, S. aureus, S. pneumoniae, and S. pyogenes to ampicillin, oxacillin, amoxicillin, and tetracycline were checked as positive antibiotic controls. All tests were performed as three independent experiments, each carried out in triplicate, and the results were presented as median/modal values. According to the widely accepted norm in MIC testing, the mode and median were used for the final value calculation when triplicate endpoints were within the two- and three-dilution ranges, respectively.

The test system of data set [2] is Staphylococcus aureus ATCC 29213. The data set is described as above. The class given is cell-based.
Description: as §1, §2, §3

The test system of data set [3] is Streptococcus pneumoniae ATCC 49619. The description is as above. The class given is cell-based. Particulars: for MIC: Streptococcus pneumoniae, ATCC49619.
Description: as §1, §2, §3

Data set [4] has as its system Streptococcus pyogenes ATCC 19615. Described as above. The format is cell-based. As to conditions: for MIC: Streptococcus pyogenes, ATCC19615.
Description: as §1, §2, §3

Data set [5] can be described thus: modified MTT cytotoxicity assay. Particulars: human. As for the experimental part:
(§4) Lung fibroblast cell line MRC-5, obtained from ATCC, was propagated in Eagle’s Minimum Essential Medium (EMEM) supplemented with 10% fetal bovine serum (FBS), 2 mM glutamine, 10 µL/mL non-essential amino acids, and 1% penicillin–streptomycin solution (10,000 units/mL of penicillin and 10 mg/mL of streptomycin); all these components were purchased from Sigma-Aldrich. The cells were pre-incubated in 96-well microtiter plates at a density of 2.5 × 10^3 cells per well for 24 h at 37 °C in a humidified incubator in an atmosphere of 5% CO2 in air.
(§5) A modified method based on the metabolization of MTT to blue formazan by mitochondrial dehydrogenases in living lung cells previously described by Mosmann was used. The lung fibroblast cells were treated for 72 h with the tested compounds dissolved in DMSO at a maximum concentration of 1% and diluted in the EMEM medium supplemented with 10% FBS. Twelve two-fold serially diluted concentrations of these agents ranging from 512 to 0.25 µg/mL were prepared. The microtiter plates were covered with EVA capmats^TM at 37 °C in a humidified atmosphere of 5% CO2 in air and cultivated for 72 h. Thereafter, MTT reagent (1 mg/mL) in EMEM solution was added to each well and the plates were incubated for an additional 2 h at 37 °C in a humidified atmosphere of 5% CO2 in air. The media were removed, and the intracellular formazan product was dissolved in 100 µL of DMSO. […] The absorbance was measured at 555 nm using a Tecan Infinite M200 spectrometer (Tecan Group, Mannedorf, Switzerland), and the viability was calculated in comparison to that of the untreated control. Three independent experiments (two replicates each) were performed for each test. […] Furthermore, IC80 was calculated as equivalent to the MIC endpoint for comparison of microbiological and toxicological data. Therapeutic indices (TIs) were defined as the ratio of x¯ -IC80 and x¯ -MIC values with the aim of determining the amount of effective antibacterial agents with the quantity causing toxicity.
Background: Formazan colour is commonly taken as a measure of viable cells.

The subject of data set [6] is normal lung fibroblast cells MRC-5. Put plainly: modified MTT cytotoxicity assay. The procedure:
as §4, §5

Data set [7] relates to respiratory pathogens. Nature of the data set: broth macrodilution volatilization method, all four bacteria together. The class given is cell-based. As to conditions: mean value of minimal inhibitory concentrations in broth medium.
Description: as §1, §2
The antibacterial potential of volatile plant-derived compounds in the liquid and vapor phases was determined using a newly developed broth macrodilution volatilization method performed in standard 2 mL microtubes with snap caps (Eppendorf, Hamburg, Germany). Initially, each sample of compound was dissolved in DMSO at maximum concentration of 1% and diluted in the appropriate broth medium. […] After incubation at 37 °C for 24 h, the MICs were evaluated by the visual assessment of bacterial growth after coloring metabolically active bacterial colonies with MTT dye. The respective volumes of 30 and 375 µL of MTT at a concentration of 600 µg/mL were pipetted into the caps and in the microtubes when the interface of color change from yellow to purple (relative to that of colors in control wells) was recorded in broth and agar (Figure 3c). […] The MIC values were determined as the lowest concentrations that inhibited bacterial growth compared with the compound-free control and are expressed in µg/mL. […]

Data set [8] relates to S. aureus. Particulars: various strains of S. aureus; cited from earlier work.
The test system of data set [9] is S. pneumoniae. Set-up: method as in PMID 31106894. Particulars: cited from earlier work.
In data set [10] the test system is S. pyogenes. Set-up: method as in PMID 31106894. As to conditions: cited from earlier work.
Data set [11] concerns human lung cancer tissues. On the set-up: method as in PMID 25105411, doi:10.1177/1934578X1801301223, doi:10.15324/kjcls.2019.51.2.221. Particulars: various types of human lung cancer tissues; cited from earlier work.
Data set [12] deals with oral microorganisms. Set-up: method as in PMID 27681039. Particulars: disc volatilization method; cited from earlier work.
The mark [13] stands for this setting: liquid phase, 37 °C, 24 h, read-out: Minimal Inhibitory Concentration, Broth.
[14] abbreviates: vapor phase, 37 °C, 24 h, read-out: Minimal Inhibitory Concentration, Agar.
Where [15] appears, read: vapor phase, weight of volatile agent per volume unit of microtube, read-out: Minimal Inhibitory Concentration, Agar.

Values after ≈ are worked out from the molar mass of the structure shown. Where two headings read alike, the source gives them in different places.

As to `CC(C)c1cccc(=O)c(O)c1` [β-thujaplicin], the MIC in [1] (ATCC49247, liquid phase, 37 °C, 24 h, read-out: Minimal Inhibitory Concentration, Broth) stood at 64 µg/mL (≈ 390 µM); in data set [1] (ATCC49247, vapor phase, 37 °C, 24 h, read-out: Minimal Inhibitory Concentration, Agar), 512 µg/mL (≈ 3120 µM); in data set [1] (ATCC49247, vapor phase, weight of volatile agent per volume unit of microtube, read-out: Minimal Inhibitory Concentration, Agar), 320 µg/mL (≈ 1950 µM); in data set [2] (ATCC29213, liquid phase, 37 °C, 24 h, read-out: Minimal Inhibitory Concentration, Broth), 64 µg/mL (≈ 390 µM); in [2] (ATCC29213, vapor phase, 37 °C, 24 h, read-out: Minimal Inhibitory Concentration, Agar), 512 µg/mL (≈ 3120 µM); in [2] (ATCC29213, vapor phase, weight of volatile agent per volume unit of microtube, read-out: Minimal Inhibitory Concentration, Agar), 320 µg/mL (≈ 1950 µM). In addition, the MIC in data set [3] (setting [13]) was determined as 64 µg/mL (≈ 390 µM); in data set [3] (setting [14]) it was 1020 µg/mL (≈ 6240 µM); in data set [3] (setting [15]) it was 640 µg/mL (≈ 3900 µM); in data set [4] (setting [13]), 64 µg/mL (≈ 390 µM); in data set [4] (setting [14]) it was 1020 µg/mL (≈ 6240 µM); in data set [4] (setting [15]), 640 µg/mL (≈ 3900 µM). Also, the MIC in data set [8] was 12.5 to 160 µg/mL; in data set [9], 0.3 to 1 µg/mL; in [10], 0.3 to 1 µg/mL. Further, the “Minimal Inhibitory Concentration, Agar” value in data set [3] (vapor phase, 37 °C, 24 h) is on record as “low antibacterial efficacy”; in data set [4] (vapor phase, 37 °C, 24 h), “low antibacterial efficacy”. Also, in data set [5], the IC80 (as a rule, the concentration at which the effect reaches the 80% level) at 72 h came out at 215 ± 9.71 µg/mL (≈ 1310 µM). Besides, the IC50 (in general, the concentration that inhibits the measured activity by half) in data set [6] (Homo sapiens, MRC5, 72 h, read-out: IC50 ± SD) was 4.15 ± 0.45 µg/mL (≈ 25.3 µM); in data set [11] it was 0.26 to 12.32 µg/mL. Besides, the “level of cytotoxic effect (WHO classification)” value in data set [6] (classified by IC50 in lung fibroblast cells) is listed as “moderate toxicity”. Further, the TI in [6] (therapeutic index, TI = IC80/x¯ -MIC) stood at 3.36. In addition, in data set [7], the x¯ -MIC was 64 µg/mL. Further, the “growth-inhibitory effect in the gaseous phase” value in [12] is “certain level of growth-inhibitory effect”.

The values above are taken from publication PMC8305236, “New Broth Macrodilution Volatilization Method for Antibacterial Susceptibility Testing of Volatile Agents and Evaluation of Their Toxicity Using Modified MTT Assay In Vitro” (Molecules, 2021).
